For one compound, IC50 results are on record in publication PMC2916072 (Archives of biochemistry and biophysics, 2010).

One may read the IC50 as the concentration that gives 50% inhibition. A lower IC50 goes with greater potency in that assay.

The target in the assay is Met receptor tyrosine kinase (Homo sapiens, UniProt P08581). In words: phospho-Met. The assay is classed as cell-based.
Chain of Met receptor tyrosine kinase (P08581 25-307): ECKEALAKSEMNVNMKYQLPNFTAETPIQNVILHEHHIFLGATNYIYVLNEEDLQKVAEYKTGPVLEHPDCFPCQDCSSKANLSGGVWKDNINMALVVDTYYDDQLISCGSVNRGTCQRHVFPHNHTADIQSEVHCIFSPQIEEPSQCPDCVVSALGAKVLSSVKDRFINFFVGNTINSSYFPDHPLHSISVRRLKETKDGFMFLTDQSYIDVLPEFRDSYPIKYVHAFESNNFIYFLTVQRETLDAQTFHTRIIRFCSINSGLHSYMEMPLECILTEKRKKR
Chain of Met receptor tyrosine kinase (P08581 308-1390): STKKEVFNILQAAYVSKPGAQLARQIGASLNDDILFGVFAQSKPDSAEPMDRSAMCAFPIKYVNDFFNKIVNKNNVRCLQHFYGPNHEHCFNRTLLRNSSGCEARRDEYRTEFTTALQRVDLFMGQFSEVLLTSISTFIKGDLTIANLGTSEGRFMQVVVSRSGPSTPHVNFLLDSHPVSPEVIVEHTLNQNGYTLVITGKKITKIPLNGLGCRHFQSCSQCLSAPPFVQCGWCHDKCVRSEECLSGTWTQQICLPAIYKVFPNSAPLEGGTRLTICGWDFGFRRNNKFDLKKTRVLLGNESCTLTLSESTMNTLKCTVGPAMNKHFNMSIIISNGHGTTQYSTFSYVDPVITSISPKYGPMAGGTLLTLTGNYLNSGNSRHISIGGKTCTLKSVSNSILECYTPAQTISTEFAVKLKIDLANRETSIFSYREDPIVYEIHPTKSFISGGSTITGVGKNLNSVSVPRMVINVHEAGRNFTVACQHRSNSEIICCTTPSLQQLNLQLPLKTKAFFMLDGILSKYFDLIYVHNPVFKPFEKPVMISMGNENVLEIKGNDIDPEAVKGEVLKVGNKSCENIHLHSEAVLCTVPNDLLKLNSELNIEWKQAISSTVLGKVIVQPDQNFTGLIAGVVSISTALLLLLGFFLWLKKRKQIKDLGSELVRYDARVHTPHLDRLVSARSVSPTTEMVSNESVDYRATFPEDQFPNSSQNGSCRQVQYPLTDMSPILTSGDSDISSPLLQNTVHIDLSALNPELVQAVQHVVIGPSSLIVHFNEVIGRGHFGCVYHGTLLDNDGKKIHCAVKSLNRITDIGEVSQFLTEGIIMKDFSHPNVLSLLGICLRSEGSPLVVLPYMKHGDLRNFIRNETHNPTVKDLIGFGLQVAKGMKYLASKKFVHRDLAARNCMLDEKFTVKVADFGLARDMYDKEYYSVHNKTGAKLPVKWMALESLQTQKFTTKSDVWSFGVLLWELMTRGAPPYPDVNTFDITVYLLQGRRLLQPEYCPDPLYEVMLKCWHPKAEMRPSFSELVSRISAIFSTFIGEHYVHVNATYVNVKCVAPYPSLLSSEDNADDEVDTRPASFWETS

`Cc1[nH]c(/C=C2\C(=O)Nc3ccc(S(=O)(=O)N(C)c4cccc(Cl)c4)cc32)c(C)c1C(=O)N1CCN(C)CC1` [SU11274, (3Z)-N-(3-chlorophenyl)-3-({3,5-dimethyl-4-[(4-methylpiperazin-1-yl)carbonyl]-1H-pyrrol-2-yl}methylene)-N-methyl-2-oxoindoline-5-sulfonamide]: the midpoint of inhibition, the IC50, lay at 50 nM.
